Read-outs that look alike come from different tables or passages of the source. Positions of bridges follow the written chain, without caps; N, C: chain ends. Non-standard residues stand in square brackets, D forms with d. Residues, ends and D or L forms follow the SMILES beside them. Trp(1-Me) = Cn1cc(C[C@H](N)C(=O)O)c2ccccc21; 2Pal = N[C@@H](Cc1ccccn1)C(=O)O
What was measured:
Assay in all cases: cell-based
hNav1.3 = hNav1.3 (Homo sapiens, UniProt Q9NY46); conditions: IonWorks Quattro, read-out: IWQ Use Nav1.3
hNav1.7 = hNav1.7 (Homo sapiens, UniProt Q15858); format: cell-based; conditions: IonWorks Quattro, read-out: IWQ Use Nav1.7
Sequence of hNav1.7 (Q15858 whole entry, looked up): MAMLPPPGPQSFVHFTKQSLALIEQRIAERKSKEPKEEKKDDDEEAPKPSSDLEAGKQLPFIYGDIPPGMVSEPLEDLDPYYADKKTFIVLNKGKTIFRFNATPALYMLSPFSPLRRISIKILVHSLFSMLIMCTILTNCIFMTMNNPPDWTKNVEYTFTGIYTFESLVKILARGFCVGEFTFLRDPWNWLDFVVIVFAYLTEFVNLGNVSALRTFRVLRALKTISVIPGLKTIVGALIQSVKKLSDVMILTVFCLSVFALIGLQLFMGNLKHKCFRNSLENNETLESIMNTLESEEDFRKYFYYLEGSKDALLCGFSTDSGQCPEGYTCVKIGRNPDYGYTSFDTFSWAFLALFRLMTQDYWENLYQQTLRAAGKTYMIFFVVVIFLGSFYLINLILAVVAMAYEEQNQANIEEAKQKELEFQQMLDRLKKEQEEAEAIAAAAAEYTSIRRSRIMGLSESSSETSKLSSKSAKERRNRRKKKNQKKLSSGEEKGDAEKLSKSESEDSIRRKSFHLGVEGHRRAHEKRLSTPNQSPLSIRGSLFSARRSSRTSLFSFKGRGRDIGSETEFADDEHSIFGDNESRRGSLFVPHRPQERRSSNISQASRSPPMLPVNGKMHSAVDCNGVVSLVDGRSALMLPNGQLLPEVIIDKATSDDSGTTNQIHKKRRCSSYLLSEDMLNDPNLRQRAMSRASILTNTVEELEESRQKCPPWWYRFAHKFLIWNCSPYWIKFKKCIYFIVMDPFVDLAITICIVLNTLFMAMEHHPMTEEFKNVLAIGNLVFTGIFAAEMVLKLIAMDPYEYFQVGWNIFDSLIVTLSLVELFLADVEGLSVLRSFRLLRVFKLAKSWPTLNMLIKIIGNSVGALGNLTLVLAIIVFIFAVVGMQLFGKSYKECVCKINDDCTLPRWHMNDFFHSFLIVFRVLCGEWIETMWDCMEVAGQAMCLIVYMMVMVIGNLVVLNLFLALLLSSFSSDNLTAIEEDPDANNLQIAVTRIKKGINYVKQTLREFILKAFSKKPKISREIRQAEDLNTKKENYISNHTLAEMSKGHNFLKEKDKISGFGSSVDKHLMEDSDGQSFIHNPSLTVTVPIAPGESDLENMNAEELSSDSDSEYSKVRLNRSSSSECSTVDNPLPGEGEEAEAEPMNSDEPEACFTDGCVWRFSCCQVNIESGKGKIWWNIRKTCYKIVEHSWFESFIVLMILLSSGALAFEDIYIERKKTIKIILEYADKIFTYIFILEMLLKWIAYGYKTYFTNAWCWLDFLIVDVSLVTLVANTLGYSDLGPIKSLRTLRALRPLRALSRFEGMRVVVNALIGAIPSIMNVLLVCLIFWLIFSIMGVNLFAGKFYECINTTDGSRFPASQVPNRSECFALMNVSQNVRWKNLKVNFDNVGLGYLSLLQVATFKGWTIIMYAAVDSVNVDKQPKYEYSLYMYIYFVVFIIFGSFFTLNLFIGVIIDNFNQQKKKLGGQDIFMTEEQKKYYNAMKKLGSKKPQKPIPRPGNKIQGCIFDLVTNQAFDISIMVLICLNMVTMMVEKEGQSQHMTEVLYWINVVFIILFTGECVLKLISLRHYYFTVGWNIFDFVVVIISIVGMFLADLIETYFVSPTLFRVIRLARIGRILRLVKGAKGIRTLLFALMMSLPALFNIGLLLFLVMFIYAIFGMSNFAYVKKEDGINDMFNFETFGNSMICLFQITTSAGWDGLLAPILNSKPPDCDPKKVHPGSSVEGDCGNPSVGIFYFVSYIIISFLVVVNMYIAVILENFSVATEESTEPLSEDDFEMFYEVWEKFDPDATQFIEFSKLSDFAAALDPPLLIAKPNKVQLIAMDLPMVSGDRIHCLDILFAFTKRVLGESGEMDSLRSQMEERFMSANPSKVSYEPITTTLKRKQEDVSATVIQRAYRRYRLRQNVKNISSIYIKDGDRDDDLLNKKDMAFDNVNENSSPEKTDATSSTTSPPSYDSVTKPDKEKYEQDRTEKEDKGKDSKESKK

hNav1.5 = hNav1.5 (Homo sapiens, UniProt Q14524)
Sequence of hNav1.5 (Q14524 whole entry, looked up): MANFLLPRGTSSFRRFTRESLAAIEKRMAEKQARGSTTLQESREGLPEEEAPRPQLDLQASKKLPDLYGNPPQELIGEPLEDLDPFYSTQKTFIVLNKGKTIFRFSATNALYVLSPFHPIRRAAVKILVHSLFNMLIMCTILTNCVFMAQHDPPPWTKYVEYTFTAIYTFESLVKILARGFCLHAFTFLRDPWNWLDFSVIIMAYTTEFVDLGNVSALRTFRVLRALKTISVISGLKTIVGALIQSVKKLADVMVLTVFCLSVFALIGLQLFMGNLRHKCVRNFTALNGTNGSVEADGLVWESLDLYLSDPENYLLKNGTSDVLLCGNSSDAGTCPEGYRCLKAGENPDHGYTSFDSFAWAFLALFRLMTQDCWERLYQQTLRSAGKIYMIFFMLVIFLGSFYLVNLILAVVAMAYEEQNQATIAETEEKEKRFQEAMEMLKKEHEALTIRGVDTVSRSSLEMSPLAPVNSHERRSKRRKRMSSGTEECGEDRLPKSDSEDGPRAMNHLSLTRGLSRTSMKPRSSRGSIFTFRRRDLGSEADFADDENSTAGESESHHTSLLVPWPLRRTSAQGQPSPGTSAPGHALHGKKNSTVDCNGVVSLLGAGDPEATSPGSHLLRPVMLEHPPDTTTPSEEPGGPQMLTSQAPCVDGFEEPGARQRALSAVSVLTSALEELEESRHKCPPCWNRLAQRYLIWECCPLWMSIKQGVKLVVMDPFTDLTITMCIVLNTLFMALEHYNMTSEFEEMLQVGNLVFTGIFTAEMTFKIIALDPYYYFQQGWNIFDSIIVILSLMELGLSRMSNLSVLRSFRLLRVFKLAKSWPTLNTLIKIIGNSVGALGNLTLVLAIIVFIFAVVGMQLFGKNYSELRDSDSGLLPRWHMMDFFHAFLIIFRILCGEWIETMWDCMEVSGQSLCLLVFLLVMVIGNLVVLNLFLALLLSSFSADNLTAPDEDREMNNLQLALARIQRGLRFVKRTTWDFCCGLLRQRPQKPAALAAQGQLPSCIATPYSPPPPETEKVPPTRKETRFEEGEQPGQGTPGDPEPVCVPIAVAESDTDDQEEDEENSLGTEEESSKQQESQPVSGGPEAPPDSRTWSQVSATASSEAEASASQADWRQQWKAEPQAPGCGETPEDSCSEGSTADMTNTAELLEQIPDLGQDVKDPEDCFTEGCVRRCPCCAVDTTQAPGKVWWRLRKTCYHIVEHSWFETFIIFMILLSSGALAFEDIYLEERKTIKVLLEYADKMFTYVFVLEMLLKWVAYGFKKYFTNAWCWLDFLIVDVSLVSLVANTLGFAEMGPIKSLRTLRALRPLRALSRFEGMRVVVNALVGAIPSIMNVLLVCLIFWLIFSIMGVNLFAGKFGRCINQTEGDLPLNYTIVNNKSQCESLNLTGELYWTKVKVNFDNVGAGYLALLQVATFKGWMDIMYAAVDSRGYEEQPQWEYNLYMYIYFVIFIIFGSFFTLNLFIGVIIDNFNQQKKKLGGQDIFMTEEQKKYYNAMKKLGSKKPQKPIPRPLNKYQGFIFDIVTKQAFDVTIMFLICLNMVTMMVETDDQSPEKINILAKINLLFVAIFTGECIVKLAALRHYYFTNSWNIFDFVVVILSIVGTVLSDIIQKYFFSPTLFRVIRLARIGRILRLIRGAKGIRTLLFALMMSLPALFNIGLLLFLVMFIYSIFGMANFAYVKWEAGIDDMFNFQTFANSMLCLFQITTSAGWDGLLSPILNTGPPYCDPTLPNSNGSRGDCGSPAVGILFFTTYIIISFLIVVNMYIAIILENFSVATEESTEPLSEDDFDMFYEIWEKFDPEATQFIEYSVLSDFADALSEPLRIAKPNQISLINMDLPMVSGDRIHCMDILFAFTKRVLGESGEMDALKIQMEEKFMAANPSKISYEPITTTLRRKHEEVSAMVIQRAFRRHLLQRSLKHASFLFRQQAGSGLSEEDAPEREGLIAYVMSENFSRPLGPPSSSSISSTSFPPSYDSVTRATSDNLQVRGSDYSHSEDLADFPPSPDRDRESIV

[1] = Table 26, IonWorks Quattro, use, […], read-out: IWQ Use Nav1.5
[2] = use-dependent protocol, hNav1.3
[3] = use-dependent protocol, hNav1.7

Row | Compound | IC50 (hNav1.3; Table 22, use, […]) | IC50 (hNav1.7; Table 22, use, […]) | IC50 (hNav1.3; Table 26, use, […]) | IC50 (hNav1.7; Table 26, use, […]) | IC50 (hNav1.5; [1]) | IC50 (hNav1.3; [2]) | IC50 (hNav1.7; [3]) | also measured
1 | CC[C@H](C)[C@@H]1NC(=O)[C@@H]2CSSC[C@@H]3NC(=O)[C@H](C(C)C)NC(=O)[C@H](CC(C)C)NC(=O)[C@H](CC(N)=O)NC(=O)[C@@H]4CCCN4C(=O)[C@H](CCCNC(=N)N)NC(=O)[C@H](CSSC[C@H](NC(=O)[C@@H](N)CC(=O)O)C(=O)N[C@@H](CC(C)C)C(=O)NCC(=O)N[C@@H](Cc4ccccc4)C(=O)N[C@@H](CCSC)C(=O)N[C@@H](CCCNC(=N)N)C(=O)N[C@@H](CCCCN)C(=O)N2)NC(=O)[C@H](CSSC[C@@H](C(=O)N[C@@H](CCCCN)C(=O)N[C@@H](Cc2ccc(O)cc2)C(=O)N[C@H](C(=O)N[C@@H](Cc2ccccc2)C(N)=O)C(C)C)NC(=O)[C@H](Cc2c[nH]c4ccccc24)NC(=O)[C@H](CCCCN)NC(=O)[C@H](Cc2cnc[nH]2)NC(=O)[C@H](CCC(=O)O)NC(=O)[C@H](CCCNC(=N)N)NC(=O)[C@H](CO)NC3=O)NC(=O)[C@H](CCCCN)NC(=O)[C@H](CC(=O)O)NC(=O)[C@H](CC(N)=O)NC(=O)[C@H](CC(=O)O)NC(=O)[C@@H]2CCCN2C1=O [SEQ ID NO: 152, [Glu26]GpTx-1] (H-DCLGFMRKCIPDNDKCCRPNLVCSREHKWCKYVF-NH2; disulfide 2-17, 9-23, 16-30) | 710 nM | 680 nM |  |  |  |  |  | IC50 (hNav1.5; IWQ Use Nav1.5 (μM)): 17.2 µM
2 | CC[C@H](C)[C@@H]1NC(=O)[C@@H]2CSSC[C@@H]3NC(=O)[C@H](C(C)C)NC(=O)[C@H](CC(C)C)NC(=O)[C@H](CC(N)=O)NC(=O)[C@@H]4CCCN4C(=O)[C@H](CCCNC(=N)N)NC(=O)[C@H](CSSC[C@H](NC(=O)[C@@H](N)CC(=O)O)C(=O)N[C@@H](CC(C)C)C(=O)NCC(=O)N[C@@H](Cc4ccccc4)C(=O)N[C@@H](CCSC)C(=O)N[C@@H](CCCNC(=N)N)C(=O)N[C@@H](CCCCN)C(=O)N2)NC(=O)[C@H](CSSC[C@@H](C(=O)N[C@@H](CCCCN)C(=O)N[C@@H](Cc2ccc(O)cc2)C(=O)N[C@@H](Cc2cn(C)c4ccccc24)C(=O)N[C@@H](Cc2ccccc2)C(N)=O)NC(=O)[C@H](Cc2c[nH]c4ccccc24)NC(=O)[C@H](CCCCN)NC(=O)[C@H](Cc2c[nH]cn2)NC(=O)[C@H]([C@@H](C)O)NC(=O)[C@H](CCCNC(=N)N)NC(=O)[C@H](CO)NC3=O)NC(=O)[C@H](CCCCN)NC(=O)[C@H](CC(=O)O)NC(=O)[C@H](CC(N)=O)NC(=O)[C@H](CC(=O)O)NC(=O)[C@@H]2CCCN2C1=O [compound 250] (H-DCLGFMRKCIPDNDKCCRPNLVCSRTHKWCKY[Trp(1-Me)]F-NH2; disulfide 2-17, 9-23, 16-30) |  |  | 70 nM | 90 nM | 5.35 µM |  |  | 
3 | CC[C@H](C)[C@@H]1NC(=O)[C@@H]2CSSC[C@@H]3NC(=O)[C@H](C(C)C)NC(=O)[C@H](CC(C)C)NC(=O)[C@H](CC(N)=O)NC(=O)[C@@H]4CCCN4C(=O)[C@H](CCCNC(=N)N)NC(=O)[C@H](CSSC[C@H](NC(=O)[C@@H](N)CC(=O)O)C(=O)N[C@@H](CC(C)C)C(=O)NCC(=O)N[C@@H](Cc4ccc(OC)c(OC)c4)C(=O)N[C@@H](CC(C)C)C(=O)N[C@@H](CCCNC(=N)N)C(=O)N[C@@H](CCCCN)C(=O)N2)NC(=O)[C@H](CSSC[C@@H](C(=O)N[C@@H](CCCCN)C(=O)N[C@@H](Cc2ccc(O)cc2)C(=O)N[C@H](C(=O)N[C@@H](Cc2ccccc2)C(N)=O)C(C)C)NC(=O)[C@H](Cc2c[nH]c4ccccc24)NC(=O)[C@H](CCCCN)NC(=O)[C@H](Cc2c[nH]cn2)NC(=O)[C@H]([C@@H](C)O)NC(=O)[C@H](CCCNC(=N)N)NC(=O)[C@H](CO)NC3=O)NC(=O)[C@H](CCCCN)NC(=O)[C@H](CC(=O)O)NC(=O)[C@H](CC(N)=O)NC(=O)[C@H](CC(=O)O)NC(=O)[C@@H]2CCCN2C1=O [compound 645] |  |  |  |  |  | 2600 nM | 2400 nM | IC50 (hNav1.5; IonWorks Quattro, use-dependent protocol, hNav1.5, read-out: IWQ Use Nav1.5): > 5 µM
4 | CC[C@H](C)[C@@H]1NC(=O)[C@@H]2CSSC[C@@H]3NC(=O)[C@H](C(C)C)NC(=O)[C@H](CC(C)C)NC(=O)[C@H](CC(N)=O)NC(=O)[C@@H]4CCCN4C(=O)[C@H](CCCNC(=N)N)NC(=O)[C@H](CSSC[C@H](NC(=O)[C@@H](N)CC(=O)O)C(=O)N[C@@H](CC(C)C)C(=O)NCC(=O)N[C@@H](Cc4ccccc4)C(=O)N[C@@H](CCSC)C(=O)N[C@@H](CCCNC(=N)N)C(=O)N[C@@H](CCCCN)C(=O)N2)NC(=O)[C@H](CSSC[C@@H](C(=O)N[C@@H](CCCCN)C(=O)N[C@@H](Cc2ccc(O)cc2)C(=O)N[C@H](C(=O)N[C@@H](Cc2ccccc2)C(N)=O)C(C)C)NC(=O)[C@H](Cc2c[nH]c4ccccc24)NC(=O)[C@H](CCCCN)NC(=O)[C@H](Cc2c[nH]cn2)NC(=O)[C@H](Cc2ccccn2)NC(=O)[C@H](CCCNC(=N)N)NC(=O)[C@H](CO)NC3=O)NC(=O)[C@H](CCCCN)NC(=O)[C@H](CC(=O)O)NC(=O)[C@H](CC(N)=O)NC(=O)[C@H](CC(=O)O)NC(=O)[C@@H]2CCCN2C1=O [compound 349] (H-DCLGFMRKCIPDNDKCCRPNLVCSR[2Pal]HKWCKYVF-NH2; disulfide 2-17, 9-23, 16-30) | 60 nM | 260 nM |  |  |  |  |  | IC50 (hNav1.5; Table 22, IonWorks Quattro, use, […], read-out: IWQ Use Nav1.5): 10.6 µM
5 | CC[C@H](C)[C@@H]1NC(=O)[C@@H]2CSSC[C@@H]3NC(=O)[C@H](C(C)C)NC(=O)[C@H](CC(C)C)NC(=O)[C@H](CC(N)=O)NC(=O)[C@@H]4CCCN4C(=O)[C@H](CCCNC(=N)N)NC(=O)[C@H](CSSC[C@H](NC(=O)[C@@H](N)CC(=O)O)C(=O)N[C@@H](CC(C)C)C(=O)NCC(=O)N[C@@H](CCc4ccccc4)C(=O)N[C@@H](CCSC)C(=O)N[C@@H](CCCNC(=N)N)C(=O)N[C@@H](CCCCN)C(=O)N2)NC(=O)[C@H](CSSC[C@@H](C(=O)N[C@@H](CCCCN)C(=O)N[C@@H](Cc2ccc(O)cc2)C(=O)N[C@H](C(=O)N[C@@H](Cc2ccccc2)C(N)=O)C(C)C)NC(=O)[C@H](Cc2c[nH]c4ccccc24)NC(=O)[C@H](CCCCN)NC(=O)[C@H](Cc2c[nH]cn2)NC(=O)[C@H]([C@@H](C)O)NC(=O)[C@H](CCCNC(=N)N)NC(=O)[C@H](CO)NC3=O)NC(=O)[C@H](CCCCN)NC(=O)[C@H](CC(=O)O)NC(=O)[C@H](CC(N)=O)NC(=O)[C@H](CC(=O)O)NC(=O)[C@@H]2CCCN2C1=O [compound 690] |  |  |  |  |  | 180 nM | 90 nM | IC50 (hNav1.5; IWQ Use Nav1.5): > 5 µM
6 | CC[C@H](C)[C@@H]1NC(=O)[C@@H]2CSSC[C@@H]3NC(=O)[C@H](C(C)C)NC(=O)[C@H](CC(C)C)NC(=O)[C@H](CC(N)=O)NC(=O)[C@@H]4CCCN4C(=O)[C@H](CCCNC(=N)N)NC(=O)[C@H](CSSC[C@H](NC(=O)[C@@H](N)CC(=O)O)C(=O)N[C@@H](CC(C)C)C(=O)NCC(=O)N[C@@H](Cc4ccccc4)C(=O)N[C@@H](CCSC)C(=O)N[C@@H](CCCNC(=N)N)C(=O)N[C@@H](CCCCN)C(=O)N2)NC(=O)[C@H](CSSC[C@@H](C(=O)N[C@@H](CCCCN)C(=O)N[C@@H](Cc2ccc(O)cc2)C(=O)N[C@@H](CC(N)=O)C(=O)N[C@@H](Cc2ccccc2)C(N)=O)NC(=O)[C@H](Cc2c[nH]c4ccccc24)NC(=O)[C@H](CCCCN)NC(=O)[C@H](Cc2c[nH]cn2)NC(=O)[C@H]([C@@H](C)O)NC(=O)[C@H](CCCNC(=N)N)NC(=O)[C@H](CO)NC3=O)NC(=O)[C@H](CCCCN)NC(=O)[C@H](CC(=O)O)NC(=O)[C@H](CC(N)=O)NC(=O)[C@H](CC(=O)O)NC(=O)[C@@H]2CCCN2C1=O [compound 394] (H-DCLGFMRKCIPDNDKCCRPNLVCSRTHKWCKYNF-NH2; disulfide 2-17, 9-23, 16-30) |  |  | 70 nM | 360 nM | 7.94 µM |  |  | 

— US9340590B2 (priority 2011, dated 2016)
